In patent publication US20240373849A1, “INSECT NEUROPEPTIDE ANALOGUES” (THE UNIVERSITY COURT OF THE UNIVERSITY OF GLASGOW, priority 2020, published 2024):
Values joined by “and” are separate entries in the source; they are usually repeats but may differ in a detail not shown here. Equal entries are not always repeated. Square brackets hold non-standard residues; d marks the D form. * marks the point of attachment. Guanidyl = -C(=N+Me2)NMe2 on the N-terminal amine (tetramethylguanidyl cap), CN(C)C(=[N+](C)C)*; Benzoyl(4-benzoyl) = O=C(c1ccccc1)c1ccc(C(=O)*)cc1; Palmitoyl = CCCCCCCCCCCCCCCC(=O)*; NMeA = CN[C@@H](C)C(=O)O

What was measured:
[1] = test system: Drosophila suzukii larvae; assay: Drosophila suzukii larval feeding (Example 8; peptide screening); assay type: in vivo; parameters: key to D. suzukii (Sig Diff Grp): A indicates a significant difference in survival compared with control (blank).; B indicates a significant difference in survival compared with scrambled capa1.; C indicates a significant difference in survival compared with scrambled capa2; details: Peptide screening, Table 5; for D. suzukii (Mean% Lethality ± SD): blank control 20.33; for D. suzukii (Sig Diff Grp): difference in survival
Experimental: First to Fourth generations of peptides were produced with varying structures and tested for CAPA receptor agonist activity, and screened for lethality in vivo against D. suzukii and M. persicae as per methods in example 2 and example 8. The top performing peptides were selected and gave rise to the list of CAPA1 and CAPA2 peptides provided above in Table 1 which were then further tested in the following applied examples.
Peptides were tested at concentrations ranging from [10^−4 M] to [10^−7 M] in a final volume of 200 μl of 0.8% agarose containing 0.09% m-Cresol purple pH marker dye (Sigma) and 5% sucrose (Sigma).
Agarose was melted in dH2O, before addition of sucrose and dye. The agarose/dye solution was then allowed to cool to 60° C. 96 well plates (flat-bottomed 3596 TC-plates; Corning) containing 20 μl volumes of neuropeptide per well were prepared, and 180 μl agarose/dye solution dispensed into each well via a Distriman repetitive micro-pipettor (Gilson). Controls contained 20 μl dH2O as a ‘sham’ treatment with 180 μl of the 0.8% agarose/dye solution. Plates were agitated at 800 rpm, to ensure mixing, at 60° C. (Eppendorf Thermomixer C). Plates were then allowed to cool, and agarose/dye solution solidify, prior to use.
Each peptide was assayed with a minimum of 7 to maximum 9 late L2/early L3 Spotted wing Drosophila, Drosophila suzukii, (feeding) larvae per well, minimum n=8 wells per peptide concentration and a minimum n=12 control wells per plate. The selected larvae were first washed 2× in ice cold Drosophila Schneider's liquid medium (ThermoFisher) before insertion into wells to remove extraneous food. After complete insertion of all larvae the plates were covered with breathable sealing membrane for multi-well plates (Sigma).
Larvae were assayed for lethality after 48 hr exposure at 21° C. and findings recorded. During examination the assay plate was kept on ice, to reduce larval locomotor activity (wandering), and larvae in each well were examined using a binocular stereomicroscope (Zeiss).
The water control group was used to determine baseline lethality. Results for neuropeptide analogues were calculated as % lethality in the remaining population after adjustment for the baseline. Results are shown in Tables 7 and 8 below, and in FIG. 1.

[2] = test system: bumblebees (Bombus terrestris); assay: Bumblebee acute oral toxicity test; assay type: in vivo
Experimental: Oral toxicity against bumblebees (Bombus terrestris) was determined as previously described:
OECD (2017), Test No. 247: Bumblebee, Acute Oral Toxicity Test, OECD Guidelines for the Testing of Chemicals, Section 2, OECD Publishing, Paris, https://doi.org/10.1787/9789264284128-en.
Example data are provided for peptides, AH56, AH257, AH259 in Tables 4, 5 below. […]
Data were acquired for: feeding behaviour—weight of liquid consumed pre- and post-treatment; lethality (days).
There was no negative impact on feeding behaviour from capa peptides. Acute bumblebee toxicity was also assessed for other peptide candidates including: AH270, PEG270. Overall, capa peptides are bee safe.

[3] = Table 11, individual bees, peptide 1 × 10 − 5M or Spirotetramat 25 uM

For “4-Benzoyl benzoic-LVAFPRV-NH2 ({Benzoyl(4-benzoyl)}-LVAFPRV-NH2; SMILES CC(C)C[C@H](NC(=O)c1ccc(C(=O)c2ccccc2)cc1)C(=O)N[C@H](C(=O)N[C@@H](C)C(=O)N[C@@H](Cc1ccccc1)C(=O)N1CCC[C@H]1C(=O)N[C@@H](CCCNC(=N)N)C(=O)N[C@H](C(N)=O)C(C)C)C(C)C) [AH55]”, the “D. suzukii (Mean% Lethality ± SD)” value [1] was 54.50%.
“4-Benzoyl benzoic-LYAFPRV-NH2 ({Benzoyl(4-benzoyl)}-LYAFPRV-NH2; SMILES CC(C)C[C@H](NC(=O)c1ccc(C(=O)c2ccccc2)cc1)C(=O)N[C@@H](Cc1ccc(O)cc1)C(=O)N[C@@H](C)C(=O)N[C@@H](Cc1ccccc1)C(=O)N1CCC[C@H]1C(=O)N[C@@H](CCCNC(=N)N)C(=O)N[C@H](C(N)=O)C(C)C) [AH49]” was tested, and the “D. suzukii (Mean% Lethality ± SD)” value [1] was 41.13% and the “D. suzukii (Sig Diff Grp)” value [1] was “A”.
For `CCOC(=O)OC1=C(c2cc(C)ccc2C)C(=O)N[C@]12CC[C@@H](OC)CC2` [Spirotetramat, reference compound], the “Liquid post exposure (weight), Mean” value ([2]; Table 11, group mean, n=10) was 1.109 g, the “liquid consumed per day post exposure, Mean” value ([2]; Table 11, group mean, n=10) was 0.2773 g and the “Liquid post exposure (weight)” value [2, 3] was 0.7878 g and 1.2332 g and 0.2963 g and 1.7853 g and 1.2062 g and 2.1130 g and 0.6196 g and 0.7732 g and 1.3842 g and 0.8924 g. For the same compound, the days alive [2, 3] was 4 days and the “liquid consumed per day post exposure” value [2, 3] was 0.1970 g and 0.3083 g and 0.0741 g and 0.4463 g and 0.3016 g and 0.5283 g and 0.1549 g and 0.1933 g and 0.3461 g and 0.2231 g.
For `O=[N+]([O-])NC1=NCCN1Cc1ccc(Cl)nc1` [imidacloprid, Imidacloprid, reference compound], the lethality of bumblebees ([2]; 28.3 uM, on day 1) was 100%, the “dead?” value ([2]; Table 10, individual bees, peptide ×10−5M or imidacloprid 28.3 uM in 50% sucrose, 0.1% ATPlus) was 1 and the “Est weight sucrose consumed post testing/day” value ([2]; individual bees, peptide ×10−5M or imidacloprid 28.3 uM in 50% sucrose, 0.1% ATPlus) was 0.0822 grams/day and 0.0000 grams/day and 0.0495 grams/day and 0.0562 grams/day and 0.2205 grams/day and 0.4394 grams/day. For the same compound, the “Feeding impacted? (+ve feeding increased post pep, −ve feeding decreased post pep)” value ([2]; individual bees, post minus pre testing sucrose consumption) was −0.1179 grams/day and −0.1209 grams/day and −0.1306 grams/day and −0.3025 grams/day and −0.1495 grams/day and −0.1412 grams/day and 0.0704 grams/day and −0.3396 grams/day and 0.1955 grams/day and −0.2914 grams/day and −0.3507 grams/day and the “T-test outcome, sucrose consumed Pre vs Post” value ([2]; per treatment group) was “Feeding sig reduced”.
Ac-LVAFPRV-NH2 [AH33] was tested, and the “D. suzukii (Mean% Lethality ± SD)” value [1] was 43.50% and the “D. suzukii (Sig Diff Grp)” value [1] was “A”.
Ac-LYAFPRV-NH2 [AH32] was tested, and the “D. suzukii (Mean% Lethality ± SD)” value [1] was 41.50% and the “D. suzukii (Sig Diff Grp)” value [1] was “A”.
With “Guanidyl-LV-(Me)A-FPRV-NH2 (Guanidyl-LV[NMeA]FPRV-NH2; SMILES CC(C)C[C@H](NC(N(C)C)=[N+](C)C)C(=O)N[C@H](C(=O)N(C)[C@@H](C)C(=O)N[C@@H](Cc1ccccc1)C(=O)N1CCC[C@H]1C(=O)N[C@@H](CCCNC(=N)N)C(=O)N[C@H](C(N)=O)C(C)C)C(C)C) [AH258]” the “D. suzukii (Mean% Lethality ± SD)” value [1] was 47.75% and the “D. suzukii (Sig Diff Grp)” value [1] was “A”.
H-Nle-LYAFPRV-NH2 [AH51] was tested, and the “D. suzukii (Mean% Lethality ± SD)” value [1] was 38.63% and the “D. suzukii (Sig Diff Grp)” value [1] was “A”.
With “Palmitoyl-LVAFPRV-NH2 (SMILES CCCCCCCCCCCCCCCC(=O)N[C@@H](CC(C)C)C(=O)N[C@H](C(=O)N[C@@H](C)C(=O)N[C@@H](Cc1ccccc1)C(=O)N1CCC[C@H]1C(=O)N[C@@H](CCCNC(=N)N)C(=O)N[C@H](C(N)=O)C(C)C)C(C)C) [AH59]” the “D. suzukii (Mean% Lethality ± SD)” value [1] was 44.13% and the “D. suzukii (Sig Diff Grp)” value [1] was “A”.
